Measured values published in US20240285627A1, “DRUG COMBINATION OF FAK INHIBITOR AND IMMUNOGENIC CELL DEATH INDUCER AND USE THEREOF” (INXMED (NANJING) CO., LTD., priority 2022, published 2024).

Key:
Type in all cases: cell-based
Mouse lung cancer KPL [1] = test: Proliferation of KPL cells, CCK8, MRTX1133 with or without IN10018 (Example 5); conditions: 72 hours, MRTX1133 alone
Protocol: Mouse lung cancer KPL (Insitute of Biochemistry and Cell Biology) were cultured with RPMI-1640 (Shanghai Basalmedia, classification number: L210KJ, batch number: F210916)+10% FBS (Gibco, classification number: 10099-141c, batch number: 2158737cp) and passaged twice. When the cells were in good condition, the culture solution was placed in a 96-well plate with 3000 cells/well. After the cells were spread for 24 hours, a culture medium containing MRTX1133 (SuperLan Chemical Co., Ltd., classification number: P2621928-55-8, batch number: 131005) was added. 10 drug action concentrations were set, wherein the first concentration was 30 μM, which was serially diluted 5 times, and the last concentration was a control with a drug concentration of 0. Each drug concentration was set in triplicate. At the same time, another group of cells was established with the same drug concentration as the above method. The difference was that 10 μM IN10018 was added to each well. The drugs were mixed and the mixture was cultured in a 5% CO2 incubator at 37° C. for 72 hours.
After 72 hours of drug action, the cells were observed under a microscope, and 10 μl of CCK8 detection reagent (Cellorlab, classification number: CX001M, batch number: 2571100) was added to each well. […] Then the plate was read with a microplate reader OD450 ([…]).

Mouse lung cancer KPL [2] = test: KPL cells with IN10018 and MRTX1133: microscope and flow cytometry for CRT / Annexin V (Example 6); conditions: 48 hours, IN10018 10 μM, MRTX1133 15 μM
Protocol: (§1) Mouse lung cancer KPL (Insitute of Biochemistry and Cell Biology) were cultured with RPMI-1640 (Shanghai Basalmedia, classification number: L210KJ, batch number: F210916)+10% FBS (Gibco, classification number: 10099-141c, batch number: 2158737cp) and passaged twice. When the cells were in good condition, the culture solution was placed in a 24-well plate. After the cells were spread for 24 hours, four groups were set up, wherein the first group was a control group, and the culture medium was added; the second group was IN10018 with a concentration of 10 μM; the third group was MRTX1133 (SuperLan Chemical Co., Ltd., classification number: P2621928-55-8, batch number: 131005) with a concentration of 15 μM; and the fourth group was IN10018 (10 μM) combined with MRTX1133 (15 μM). The drugs were mixed and the mixture was cultured in a 5% CO2 incubator at 37° C. for 48 hours.
(§2) After 48 hours of drug action, the cells were observed under a microscope and photographed, and the photos were kept. Then the cells were collected, subjected to flow analysis, and washed twice with flow buffer (PBS+2% FBS). 0.5 μl of AF647 anti-Calreticulin antibody (abcam, classification number: ab196159, batch number: CR33676773) was added to each well and fully mixed. […] The mixture was cultured at room temperature in the dark for 15 minutes, and then analyzed by flow cytometry.

[3] = system: Mouse colon cancer CT26 cells; test: CT26 cells with IN10018 and MRTX1133: microscope and flow cytometry for CRT / Annexin V (Example 4); conditions: CT26, 48 hours; IN10018 5 μM, MRTX1133 6 μM
Protocol: as §1, with “Mouse colon” for “Mouse lung”, “cancer CT26 cells” for “cancer KPL”, “of 5” for “of 10”, “of 6” for “of 15”, “IN10018 (5” for “IN10018 (10”, “MRTX1133 (6” for “MRTX1133 (15”
as §2

## C#Cc1c(F)ccc2cc(O)cc(-c3ncc4c(N5CC6CCC(C5)N6)nc(OC[C@@]56CCCN5C[C@H](F)C6)nc4c3F)c12 [MRTX1133]
Mouse lung cancer KPL [1]
  IC50: 1.76 µM
Mouse lung cancer KPL [2]
  cell state under a microscope: poor
[3]
  cell state under a microscope: poor

## COc1cc(C(=O)NC2CCN(C)CC2)c(F)cc1Nc1ncc(C(F)(F)F)c(Oc2cccc3c2C(=O)N(C)C3)n1 [IN10018]
Mouse lung cancer KPL [2]
  cell state under a microscope: good
[3]
  cell state under a microscope: good
